Measured values published in patent US20240246981A1, “[…] DERIVATIVES AS INHIBITORS OF […]-PEPTIDE CYCLOTRANSFERASE AND […]-PEPTIDE CYCLOTRANSFERASE LIKE PROTEIN” (Boehringer Ingelheim International GmbH, priority 2022, published 2024).
Where two headings read alike, the source gives them in different places.

How the values were obtained:
[1] = biological target: QPCTL (Homo sapiens (Human), UniProt Q9NXS2); test: Assay A: biochemical QPCTL activity assay (MALDI-TOF MS); conditions: read-out: Inhibition of QPCTL: IC50
Sequence of QPCTL (Q9NXS2 whole entry): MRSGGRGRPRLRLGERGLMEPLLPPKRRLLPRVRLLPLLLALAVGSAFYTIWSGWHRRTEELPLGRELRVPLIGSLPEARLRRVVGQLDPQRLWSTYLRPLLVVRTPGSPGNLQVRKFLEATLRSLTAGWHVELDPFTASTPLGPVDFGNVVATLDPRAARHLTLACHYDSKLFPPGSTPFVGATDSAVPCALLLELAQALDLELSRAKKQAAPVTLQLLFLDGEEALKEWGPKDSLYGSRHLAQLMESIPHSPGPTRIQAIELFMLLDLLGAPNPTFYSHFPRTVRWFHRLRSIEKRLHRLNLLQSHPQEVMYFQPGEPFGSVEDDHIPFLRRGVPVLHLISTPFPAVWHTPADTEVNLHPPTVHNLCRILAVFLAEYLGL
Method: (§1) QPCT or QPCTL dependent conversion of N-terminal glutamine to pyroglutamate of CD47 was monitored via MALDI-TOF MS. Test compounds were dissolved in 100% DMSO and serially diluted into clear 1,536-well microtiter plates. Enzymatic reactions were set up in assay buffer containing 20 mM Tris pH 7.5, 0.1 mM TCEP, 0.01% BSA, and 0.001% Tween20. […] The plates were incubated for 10 min in a humidified incubator at 24° C. Subsequently, 2.5 μL of CD47 peptide substrate surrogate (^19[…]^33) was added to each well (final concentration: 10 μM for QPCTL/20 μM for QPCT). The plates were mixed for 30 sec at 1,000 rpm and subsequently incubated for 40 min in a humidified incubator at 24° C. […] The plates were sealed with an adhesive foil, mixed for 30 s at 1,000 rpm and stored at room temperature until preparation of the MALDI target plates. […] QPCT or QPCTL activity was monitored by calculating the ratio between product and internal standard signals followed by normalization to high (100% activity) and low (0% activity) controls. Determination of compound potencies was obtained by fitting the dose-response data to a four-parameter logistical equation.

[2] = biological target: QPCT (Homo sapiens (Human), UniProt Q16769); test: Assay A: biochemical QPCT activity assay (MALDI-TOF MS); conditions: read-out: Inhibition of QPCT: IC50
Sequence of QPCT (Q16769 29-361): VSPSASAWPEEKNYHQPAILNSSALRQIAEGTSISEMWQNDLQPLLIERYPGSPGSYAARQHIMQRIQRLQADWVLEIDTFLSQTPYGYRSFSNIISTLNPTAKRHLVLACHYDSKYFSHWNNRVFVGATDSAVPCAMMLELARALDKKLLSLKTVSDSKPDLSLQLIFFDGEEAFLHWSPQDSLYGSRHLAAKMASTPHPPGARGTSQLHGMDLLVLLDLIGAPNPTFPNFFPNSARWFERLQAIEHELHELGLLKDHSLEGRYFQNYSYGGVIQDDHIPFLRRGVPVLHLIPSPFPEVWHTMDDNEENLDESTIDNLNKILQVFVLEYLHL
Method: as §1

[3] = tested on: SIRPα signalling induced by Raji cells; test: Assay B: SIRPα signalling assay using Raji cells; type: cell-based, human
Method: Bioassay reagent 1 of the PathHunter Bioassay detection kit (DiscoverX 93-0001) was added to each well of the plate using a multichannel pipette followed by a 15 min incubation at room temperature. Afterwards bioassay reagent 2 was added followed by 60 min incubation at room temperature (incubation in the dark).
(§2) The analysis of the data was performed using the luminescence signal generated by beta-galactosidase in the PathHunter reporter cell line. The luminescence measurement was done using a Pherastar Multi-Mode Reader.

[4] = tested on: SIRPα signalling induced by A549 cells; test: Assay B: SIRPα signalling assay using A549 cells; type: cell-based, human
Method: Two cell types are independently used: the Raji cell line (lymphoblastlike human cell line derived from B lymphocytes from a Burkitt's lymphoma patient in 1963) and A549 cells (adenocarcinomic human alveolar basal epithelial cells).
Test compounds were dissolved in 100% DMSO and serially diluted into a white 384-well microtiter cell culture plate (PerkinElmer #60076780 in case of Raji assay; PDL-coated plates Greiner #781945 in case of A549 assay). 5000 Raji cells (ATCC #CC86) or 5000 A549 cells (ATCC #CCL-185) in Assay Complete Cell Plating reagent 30 (DiscoverX 93-0563R30B) were added per well. The assay plate was incubated for 48 h at 37° C., 95% humidity and 5% CO2. 15000 reporter cells (Jurkat PathHunter SIRPα V1, DiscoverX #93-1135C19) were added to each well, and the plate was incubated for 5 h at 37° C., 95% humidity and 5% CO2. Bioassay reagent 1 of the PathHunter Bioassay detection kit (DiscoverX 93-0001) was added to each well of the plate using a multichannel pipette followed by a 15 min incubation at room temperature. Afterwards bioassay reagent 2 was added followed by 60 min incubation at room temperature (incubation in the dark).
as §2, with “Reader. Dose-response curves & IC50 data were calculated with 4-parameter sigmoidal dose response formula.” for “Reader.”

[5] = tested on: Caco-2 cells; test: Assay C: permeability in CACO-2 cells; type: in vitro ADME; conditions: prior art compounds, Table 8; for Permeability A-B: Caco-2, apical to basolateral
Method: (§3) Compounds are dissolved in appropriate solvent (like DMSO, 1-20 mM stock solutions). […] The transport solution (TL) is applied to the apical or basolateral donor side for measuring A-B or B-A permeability (3 filter replicates), respectively. Samples are collected at the start and end of experiment from the donor and at various time intervals for up to 2 hours also from the receiver side for concentration measurement by HPLC-MS/MS or scintillation counting. Sampled receiver volumes are replaced with fresh receiver solution.

[6] = Assay C: permeability in CACO-2 cells; type: in vitro ADME; conditions: human, pH 7.2, compounds of the invention, Table 7; for Papp A→B: Caco-2, apical to basolateral; for efflux ratio: Caco-2
Method: as §3

[7] = prior art compounds, Table 5, read-out: Inhibition of SIRPα signalling induced by Raji cells: IC50
[8] = prior art compounds, Table 5, read-out: Inhibition of SIRPα signalling induced by A549 cells: IC50
[9] = compounds of the invention, Table 2
[10] = Homo sapiens, compounds of the invention, Table 4, read-out: Inhibition of SIRα signalling induced by Raji cells: IC50
[11] = Homo sapiens, compounds of the invention, Table 4, read-out: Inhibition of SIRα signalling induced by A549 cells: IC50

Row | SMILES | IC50 ([1]; prior art compounds, Table 3) [nM] | IC50 ([2]; prior art compounds, Table 3) [nM] | IC50 [3, 7] [nM] | IC50 [4, 8] [nM] | Permeability A-B [5] | efflux ratio ([5]; Caco-2) | IC50 [1, 9] [nM] | IC50 [2, 9] [nM] | IC50 [3, 10] [nM] | IC50 [4, 11] [nM] | Papp A→B [6] [×10⁻⁶ cm/s] | efflux ratio [6]
1 | Nc1nnc(C2CCN(c3ncccc3-c3ccc(F)nc3)CC2)s1 [compound 1095, reference compound] | 13 | 260 | 2200 | 259 | 73 10^−6 cm/s | 1.0 | – | – | – | – | – | –
2 | Cn1cnnc1C1CCN(c2c(C#N)cccc2-c2cnc3c(c2)OCO3)CC1 [compound 25] | – | – | – | – | – | – | 14 | 84 | 566 | 339 | 7.4 | 7.4
3 | Cn1cnnc1C1(F)CCN(c2c(C#N)cccc2-c2cnc3nnn(Cc4ccccc4)c3c2)CC1 [compound 63] | – | – | – | – | – | – | 1 | 3 | 13 | 9 | 3.3 | 14.5
4 | Cn1cnnc1C1(F)CCN(c2c(C#N)cccc2-c2cnc3nn(C(C)(C)C(F)(F)F)cc3c2)CC1 [compound 61] | – | – | – | – | – | – | 2 | 1 | 23 | 22 | 8 | 8.9
5 | Cn1cnnc1C1CCN(c2c(C#N)cccc2-c2cnsc2)CC1 [compound 2] | – | – | – | – | – | – | 12 | 51 | 715 | 40 | 25 | 1.8
6 | COc1cc(F)ncc1-c1cccc(C#N)c1N1CCC(c2nncn2C)CC1 [compound 44] | – | – | – | – | – | – | 4 | 18 | 109 | 121 | 11 | 1.5
7 | COc1cc(-c2cccc(C#N)c2N2CCC(c3nncn3C)CC2)cnc1F [compound 49] | – | – | – | – | – | – | 2 | 9 | 63 | 56 | 18 | 3.6
8 | Cn1cnnc1C1CCN(c2c(C#N)cccc2-c2cncc3cnn(Cc4ccccc4)c23)CC1 [compound 76] | – | – | – | – | – | – | 1 | 5 | 40 | 46 | 2.6 | 22.3
9 | CC#Cc1cncc(-c2cccc(C#N)c2N2CCC(c3nncn3C)CC2)c1 [compound 10] | – | – | – | – | – | – | 18 | 75 | 692 | 348 | 25 | 2.2
10 | Cn1cnnc1C1CCN(c2c(C#N)cccc2-c2cnc3nonc3c2)CC1 [compound 7] | – | – | – | – | – | – | 2 | 12 | 170 | 67 | 1.5 | 19.3
11 | Cn1cnnc1C1CCN(c2c(C#N)cccc2-c2cnc(F)c(F)c2)CC1 [compound 20] | – | – | – | – | – | – | 5 | 28 | 147 | 53 | 22 | 3
12 | Cn1cnnc1C1CCN(c2c(C#N)cccc2-c2cncc(C3CC3)c2)CC1 [compound 15] | – | – | – | – | – | – | 28 | 105 | 736 | 303 | 10.3 | 8.7
13 | Cn1cnnc1C1CCN(c2c(C#N)cccc2-c2cnc3nsnc3c2)CC1 [compound 43] | – | – | – | – | – | – | 3 | 28 | 342 | 271 | 2.2 | 22.3
14 | Cc1cc(F)ncc1-c1cccc(C#N)c1N1CCC(c2nncn2C)CC1 [compound 4] | – | – | – | – | – | – | 2 | 12 | 88 | 13 | 16 | 4.1
15 | Cn1cnnc1C1(C)CCN(c2c(C#N)cccc2-c2ccc(F)nc2)CC1 [compound 66] | – | – | – | – | – | – | 3 | 2 | 100 | 14 | 30 | 1.4
16 | Cn1cnnc1C1(F)CCN(c2c(C#N)cccc2-c2cnc3nn(C(C)(C)C)cc3c2)CC1 [compound 62] | – | – | – | – | – | – | 1 | 1 | 21 | 11 | 4.9 | 19
17 | Cn1ccnc1-c1cncc(-c2cccc(C#N)c2N2CCC(c3nncn3C)CC2)c1 [compound 30] | – | – | – | – | – | – | 1 | 3 | 135 | 124 | < 0.3 | > 32
18 | Cn1cnnc1C1(F)CCN(c2c(C#N)cccc2-c2cnc(F)cc2Cl)CC1 [compound 85] | – | – | – | – | – | – | 3 | 4 | 70 | 80 | – | 1.8
19 | Cn1cnnc1C1CCN(c2c(C#N)cccc2-c2cnc(F)c(OCc3ccccc3)c2)CC1 [compound 35] | – | – | – | – | – | – | 2 | 12 | 51 | 18 | 24 | 2.4
20 | Cn1cnnc1C1CCN(c2c(C#N)cccc2-c2ccc(Cl)nc2)CC1 [compound 18] | – | – | – | – | – | – | 56 | 357 | 2270 | 294 | 13.6 | 5
21 | Cn1cnnc1C1CCN(c2ncccc2-c2ccc(F)nc2)CC1 [SEN177, reference compound] | – | – | 1360 | 214 | 11.0 10^−6 cm/s | – | – | – | – | – | – | –
22 | Cn1cnnc1C1(F)CCN(c2c(C#N)cccc2-c2cnc3nc(C(F)(F)F)nn3c2)CC1 [compound 73] | – | – | – | – | – | – | 4 | 8 | 261 | 122 | 3.3 | 14.8
23 | Cn1cnnc1C1CCN(c2c(C#N)cccc2-c2cncc(F)c2)CC1 [compound 17] | – | – | – | – | – | – | 15 | 77 | 1170 | 199 | 7.3 | 7.4
24 | Cn1cnnc1C1(F)CCN(c2c(C#N)cccc2-c2cncc3cn(Cc4ccccc4)nc23)CC1 [compound 78] | – | – | – | – | – | – | 34 | 42 | 456 | 440 | 6.5 | 7.4
25 | Cc1cc(F)ncc1-c1cccc(C#N)c1N1CCC(F)(c2nncn2C)CC1 [compound 83] | – | – | – | – | – | – | 1 | 3 | 102 | 47 | 55 | 1.3
26 | CC(C)Oc1cc(-c2cccc(C#N)c2N2CCC(c3nncn3C)CC2)cnc1F [compound 19] | – | – | – | – | – | – | 1 | 9 | 53 | 18 | 39 | 2
27 | Cn1cnnc1C1CCN(c2c(C#N)cccc2-c2cnn3nc(-c4cccc(Cl)c4)ccc23)CC1 [compound 81] | – | – | – | – | – | – | 1 | 5 | 27 | 27 | 39 | 0.7
